According to patent publication US20240270748A1 (Merck Patent GmbH, priority 2021, published 2024):

What was measured:
SW620 Yap KO cells = experiment: Viability assay in SW620 Yap KO (Yap independent) cells, CyQuant; assay type: cell-based; conditions: Homo sapiens, SW-620, 96 h, n.d. = value not detectable below threshold given in parentheses
How it was run: (§1)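 Seeded cells were dosed 24 h later in duplicate (10-point, 1:3 dilutions, top 30 μM final, 0.3% DMSO) and incubated 96 h at 37 °C. Viability was read with CyQUANT DNA dye after 1 h, fluorescence bottom read. NCI-H226 in RPMI 1640 medium; SW620 YAP/TAZ CRISPR knockout in DMEM/F-12 medium.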

YAP-TEAD interaction = experiment: SK-HEP-1 reporter assay (8xTEAD responsive elements driving NanoLuc luciferase); assay type: cell-based; conditions: class symbols
How it was run: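 Reporter read-out: NanoLuc luminescence from 8×TEAD elements stably integrated in SK-HEP-1 cells, after 24 h compound exposure at 37° C. Ten concentrations tested in duplicate, top 30 μM final, 0.3% DMSO; IC50 from curve.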

NCI-H226 cells = experiment: Viability assay in NCI-H226 (Yap-dependent) cells, CyQuant; assay type: cell-based, human
How it was run: as §1

[1] = ND = not determinable within the entire range
[2] = Homo sapiens, SK-HEP1, SK-HEP-1 reporter assay
[3] = Homo sapiens, NCI-H226, 96 h, class symbols
[4] = Homo sapiens, NCI-H226, 96 h, n.d. = value not detectable below threshold given in parentheses

Row | Compound | IC50 (SW620 Yap KO cells; [1]) | IC50 (YAP-TEAD interaction; [2]) | IC50 (NCI-H226 cells; [3]) | IC50 (SW620 Yap KO cells) | IC50 (YAP-TEAD interaction; SK-HEP-1 reporter assay) | IC50 (NCI-H226 cells; 96 h, class symbols) | IC50 (NCI-H226 cells; [4])
1 | Cc1snc2c1c1cc(C(=O)N[C@H](CO)C(C)C)ccc1n2-c1ccc(C(F)(F)F)cc1 [Example C88, N-[(2S)-1-hydroxy-3-methylbutan-2-yl]-3-methyl-8-[4-(trifluoromethyl)phenyl]-8H-[1,2]thiazolo[3,4-b]indole-5-carboxamide] | > 3200 nM | 10 to 100 nM | 100 to 1000 nM |  |  |  | 
2 | C[C@H](NC(=O)c1ccc2c(c1)c1cn(C)nc1n2-c1ccc(C(F)(F)F)cc1)c1cccc(N)n1 (single isomer, unassigned) [Example C214] |  | 10 to 100 nM | 1 to 100 nM | > 3000 nM |  |  | 
3 | Cc1snc2c1c1cc(C(=O)NC[C@@H](C)O)ccc1n2-c1ccc(C(F)(F)F)cc1 [Example C90, N-[(2R)-2-hydroxypropyl]-3-methyl-8-[4-(trifluoromethyl)phenyl]-8H-[1,2]thiazolo [3,4-b]indole-5-carboxamide] | > 3200 nM | 10 to 100 nM | 1 to 100 nM |  |  |  | 
4 | Cc1snc2c1c1cc(C(=O)NCC(C)(C)O)ccc1n2-c1ccc(C(F)(F)F)cc1 [Example C52, N-(2-hydroxy-2-methylpropyl)-3-methyl-8-[4-(trifluoromethyl)phenyl]-8H-[1,2]thiazolo[3,4-b]indole-5-carboxamide] | > 3200 nM | 10 to 100 nM | 1 to 100 nM |  |  |  | 
5 | Cn1nc2c3cc(C(=O)NC[C@@H](O)C(F)(F)F)ccc3n(-c3ccc(C(F)(F)F)cc3)c2n1 [Example C160, 2-methyl-N-[(2R)-3,3,3-trifluoro-2-hydroxypropyl]-4-[4-(trifluoromethyl)phenyl]-2H,4H-[1,2,3]triazolo[4,5-b]indole-7-carboxamide] | > 30000 nM | 10 to 100 nM | 1 to 100 nM |  |  |  | 
6 | Cn1nc2c3cc(C(=O)N=[S@@](C)(=O)CCCO)ccc3n(-c3ccc(C(F)(F)F)cc3)c2n1 (single isomer, unassigned) [Example C173] |  | 10 to 100 nM | 1 to 100 nM | > 30000 nM |  |  | 
7 | Cc1snc2c1c1cc(C(=O)N[C@@H](C)CO)ccc1n2-c1ccc(C(F)(F)F)cc1 [Example C70, N-[(2S)-1-hydroxypropan-2-yl]-3-methyl-8-[4-(trifluoromethyl)phenyl]-8H-[1,2]thiazolo [3,4-b]indole-5-carboxamide] | > 3200 nM | 10 to 100 nM | 1 to 100 nM |  |  |  | 
8 | [2H]C1([2H])C(n2c3ccc(C(=O)O)cc3c3cn(C)nc32)C([2H])([2H])C([2H])([2H])C([2H])([2H])C1([2H])[2H] [Example C193, 8-[(2,2,3,3,4,4,5,5,6,6-^2H10)cyclohexyl]-2-methyl-2H,8H-pyrazolo[3,4-b]indole-5-carboxylic acid] |  | 100 to 10000 nM |  | > 30000 nM |  |  | > 30000 nM
9 | Cn1cc2c3cc(NS(C)(=O)=O)ccc3n(-c3ccc(C(F)(F)F)cc3)c2n1 [Example C6, N-{2-methyl-8-[4-(trifluoromethyl)phenyl]-2H,8H-pyrazolo[3,4-b]indol-5-yl}methanesulfonamide] | > 9500 nM | 1 to 10 nM | 1 to 100 nM |  |  |  | 
10 | Cn1nc2c3cc(C(=O)N=[S@](C)(=O)CCCO)ccc3n(-c3ccc(C(F)(F)F)cc3)c2n1 (single isomer, unassigned) [Example C172] |  | 10 to 100 nM | 1 to 100 nM | > 30000 nM |  |  | 
11 | Cc1ccc(-n2c3ccc(C(=O)N[C@H](C)CO)cc3c3cn(C)nc32)cc1 [Example C131, N-[(2R)-1-hydroxypropan-2-yl]-2-methyl-8-(4-methylphenyl)-2H,8H-pyrazolo[3,4-b]indole-5-carboxamide] | > 30000 nM | 100 to 10000 nM | 100 to 1000 nM |  |  |  | 
12 | Cc1snc2c1c1cc(C(=O)NCc3ccncn3)ccc1n2-c1ccc(C(F)(F)F)cc1 [Example C64, 3-methyl-N-[(pyrimidin-4-yl)methyl]-8-[4-(trifluoromethyl)phenyl]-8H-[1,2]thiazolo[3,4-b]indole-5-carboxamide] | > 3200 nM | 10 to 100 nM | 1 to 100 nM |  |  |  | 
13 | Cn1cc2c3cc(C(=O)O)ccc3n(C34CC(C(F)(F)F)(C3)C4)c2n1 [Example C28, 2-methyl-8-[3-(trifluoromethyl)-bicyclo[1.1.1]pentan-1-yl]-2H,8H-pyrazolo[3,4-b]indole-5-carboxylic acid] | > 30000 nM | 10 to 100 nM |  |  |  |  | > 10000 nM

The remaining lines, values ahead:

Row | IC50 (SW620 Yap KO cells; [1]) | IC50 (YAP-TEAD interaction; [2]) | IC50 (NCI-H226 cells; [3]) | IC50 (SW620 Yap KO cells) | IC50 (YAP-TEAD interaction; SK-HEP-1 reporter assay) | IC50 (NCI-H226 cells; 96 h, class symbols) | IC50 (NCI-H226 cells; [4]) | Compound
14 | > 30000 nM | 10 to 100 nM | 1 to 100 nM |  |  |  |  | COCC[C@@H](CO)NC(=O)c1ccc2c(c1)c1c(C)snc1n2-c1ccc(C(F)(F)F)cc1 (single isomer, unassigned) [Example C89]
15 | > 30000 nM |  |  |  | 10 to 100 nM | 100 to 1000 nM |  | Cn1cc2c3cc(C(=O)O)cnc3n(-c3ccc(C(F)(F)F)cc3)c2n1 [Example C110, 4-methyl-7-[4-(trifluoromethyl)phenyl]-4,5,7,9-tetraazatri-cyclo[6.4.0.0^2,6]dodeca-1(8),2,5,9,11-pentaene-11-carboxylic acid]
16 | > 3000 nM | 10 to 100 nM | 100 to 1000 nM |  |  |  |  | CNC(=O)c1ccc2c(c1)c1cn(C)nc1n2C12CC(C(F)(F)F)(C1)C2 [Example C125, N,2-dimethyl-8-[3-(trifluoromethyl)bicyclo[1.1.1]pentan-1-yl]-2H,8H-pyrazolo[3,4-b]indole-5-carboxamide]
17 | > 30000 nM | 100 to 10000 nM | 1 to 100 nM |  |  |  |  | Cn1cc2c3cc(C(=O)N=S(C)(=O)CCO)ccc3n(-c3ccc(C(F)(F)F)cc3)c2n1 (single isomer, unassigned) [Example C73]
18 |  | 100 to 10000 nM | 1 to 100 nM | > 30000 nM |  |  |  | C[C@@H](NC(=O)c1ccc2c(c1)c1cn(C)nc1n2-c1ccc(C(F)(F)F)cc1)c1ccc(N)nc1 [Example C257, N-[(1R)-1-(6-aminopyridin-3-yl)ethyl]-2-methyl-8-[4-(trifluoromethyl)phenyl]-2H,8H-pyrazolo[3,4-b]indole-5-carboxamide]
19 |  | 10 to 100 nM | 1 to 100 nM | > 3000 nM |  |  |  | Cn1cnc2c1c1cc(C3CC(Cl)=NO3)ccc1n2-c1ccc(C(F)(F)F)cc1 (stereo not drawn) [Example C198, 3-chloro-5-{1-methyl-4-[4-(trifluoromethyl)phenyl]-1H,4H-imidazo[4,5-b]indol-7-yl}-4,5-dihydro-1,2-oxazole]
20 | > 30000 nM | 10 to 100 nM | 1 to 100 nM |  |  |  |  | Cn1nc2c3cc(C(=O)NCc4ccccc4)ccc3n(-c3ccc(C(F)(F)F)cc3)c2n1 [Example C134, N-benzyl-2-methyl-4-[4-(trifluoromethyl)phenyl]-2H,4H-[1,2,3]triazolo[4,5-b]indole-7-carboxamide]
21 |  | 10 to 100 nM | 100 to 1000 nM | > 30000 nM |  |  |  | Cn1nc2c3cc(C(=O)N[C@H](CO)c4ccccn4)ccc3n(-c3ccc(C(F)(F)F)cc3)c2n1 [Example C249, N-[(1S)-2-hydroxy-1-(pyridin-2-yl)ethyl]-2-methyl-4-[4-(trifluoromethyl)phenyl]-2H,4H-[1,2,3]triazolo[4,5-b]indole-7-carboxamide]
22 |  | 10 to 100 nM | 1 to 100 nM | > 3200 nM |  |  |  | CNC(=O)c1ccc2c(c1)c1cn(C)nc1n2-c1ccc(C(F)(F)F)c(F)c1 [Example C166, 8-[3-fluoro-4-(trifluoromethyl)phenyl]-N,2-dimethyl-2H,8H-pyrazolo[3,4-b]indole-5-carboxamide]
